The Kinase Knowledgebase extract (Sharma et al. 2016)

Columns and labels:
PIK3CB (Human) = PIK3CB (Human) (UniProt P42338)
CDK2 (human) = CDK2 (human) (UniProt P24941); settings: for inhibition: concentration not given here
MAPK14 (human) = MAPK14 (human) (UniProt Q16539); settings: concentration not given here
PIK3CA (human) = PIK3CA (human) (UniProt P42336)
PIK3CD (Human) = PIK3CD (Human) (UniProt O00329)
PIK3CG (human) = PIK3CG (human) (UniProt P48736)
EGFR (human) = EGFR (human) (UniProt P00533)
Chain of EGFR (human) (P00533 whole entry, looked up): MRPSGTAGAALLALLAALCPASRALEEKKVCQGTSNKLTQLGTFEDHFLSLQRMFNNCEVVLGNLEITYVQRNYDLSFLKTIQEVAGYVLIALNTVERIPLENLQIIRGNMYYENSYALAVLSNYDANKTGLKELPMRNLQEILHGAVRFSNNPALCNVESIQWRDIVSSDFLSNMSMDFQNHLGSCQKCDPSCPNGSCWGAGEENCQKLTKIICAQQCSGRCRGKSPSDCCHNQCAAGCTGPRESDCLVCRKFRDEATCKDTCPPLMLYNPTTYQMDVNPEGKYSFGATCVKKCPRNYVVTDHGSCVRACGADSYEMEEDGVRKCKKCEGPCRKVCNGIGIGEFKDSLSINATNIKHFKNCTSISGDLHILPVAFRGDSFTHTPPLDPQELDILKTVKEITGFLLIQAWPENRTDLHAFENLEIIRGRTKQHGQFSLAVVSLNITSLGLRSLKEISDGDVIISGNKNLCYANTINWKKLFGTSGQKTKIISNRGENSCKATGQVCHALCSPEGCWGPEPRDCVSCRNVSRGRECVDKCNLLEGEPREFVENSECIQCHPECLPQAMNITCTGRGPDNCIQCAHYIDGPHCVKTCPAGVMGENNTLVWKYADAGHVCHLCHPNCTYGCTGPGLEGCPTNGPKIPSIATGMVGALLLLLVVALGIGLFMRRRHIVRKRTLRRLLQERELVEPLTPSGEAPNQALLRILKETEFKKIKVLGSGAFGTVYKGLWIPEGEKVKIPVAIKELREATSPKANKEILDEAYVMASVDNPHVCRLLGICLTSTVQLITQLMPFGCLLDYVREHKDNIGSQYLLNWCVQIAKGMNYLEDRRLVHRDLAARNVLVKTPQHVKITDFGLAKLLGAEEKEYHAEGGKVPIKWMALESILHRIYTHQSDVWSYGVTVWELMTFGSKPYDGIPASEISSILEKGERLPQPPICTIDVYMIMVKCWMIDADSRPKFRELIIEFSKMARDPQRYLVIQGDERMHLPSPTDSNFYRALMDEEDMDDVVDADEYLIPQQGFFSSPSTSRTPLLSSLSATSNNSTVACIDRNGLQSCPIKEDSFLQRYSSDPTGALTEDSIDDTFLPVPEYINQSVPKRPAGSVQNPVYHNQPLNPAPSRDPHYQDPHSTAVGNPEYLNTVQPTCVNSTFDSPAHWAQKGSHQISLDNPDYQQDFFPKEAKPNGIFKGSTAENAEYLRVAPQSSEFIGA

Chain of PIK3CD (Human) (O00329 whole entry, looked up): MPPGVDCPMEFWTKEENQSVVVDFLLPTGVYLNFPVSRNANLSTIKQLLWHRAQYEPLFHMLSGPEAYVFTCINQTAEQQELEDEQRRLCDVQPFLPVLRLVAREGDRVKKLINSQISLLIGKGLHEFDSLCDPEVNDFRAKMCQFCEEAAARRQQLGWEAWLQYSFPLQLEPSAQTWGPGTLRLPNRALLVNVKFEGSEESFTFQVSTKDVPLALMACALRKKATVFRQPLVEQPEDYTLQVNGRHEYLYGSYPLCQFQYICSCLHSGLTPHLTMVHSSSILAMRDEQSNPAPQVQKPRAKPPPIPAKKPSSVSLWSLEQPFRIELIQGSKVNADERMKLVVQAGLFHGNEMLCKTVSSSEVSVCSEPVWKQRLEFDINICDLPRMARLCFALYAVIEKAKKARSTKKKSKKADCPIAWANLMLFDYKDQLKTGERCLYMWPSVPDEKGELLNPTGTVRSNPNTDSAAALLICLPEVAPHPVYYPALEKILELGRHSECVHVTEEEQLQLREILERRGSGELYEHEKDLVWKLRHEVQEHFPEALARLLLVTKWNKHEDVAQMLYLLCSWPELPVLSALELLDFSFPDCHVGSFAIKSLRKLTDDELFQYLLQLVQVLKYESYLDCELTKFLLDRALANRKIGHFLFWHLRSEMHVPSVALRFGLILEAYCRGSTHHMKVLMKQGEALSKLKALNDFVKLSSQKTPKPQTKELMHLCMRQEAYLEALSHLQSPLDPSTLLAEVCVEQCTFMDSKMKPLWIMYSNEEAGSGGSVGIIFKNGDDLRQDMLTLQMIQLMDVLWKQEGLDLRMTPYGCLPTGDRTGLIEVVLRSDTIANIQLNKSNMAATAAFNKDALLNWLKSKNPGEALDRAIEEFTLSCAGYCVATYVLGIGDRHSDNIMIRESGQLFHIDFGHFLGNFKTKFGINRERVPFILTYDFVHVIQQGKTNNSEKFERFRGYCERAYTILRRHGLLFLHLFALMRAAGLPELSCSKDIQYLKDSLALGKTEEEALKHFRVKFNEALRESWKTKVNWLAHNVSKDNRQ
Chain of PIK3CB (Human) (P42338 whole entry, looked up): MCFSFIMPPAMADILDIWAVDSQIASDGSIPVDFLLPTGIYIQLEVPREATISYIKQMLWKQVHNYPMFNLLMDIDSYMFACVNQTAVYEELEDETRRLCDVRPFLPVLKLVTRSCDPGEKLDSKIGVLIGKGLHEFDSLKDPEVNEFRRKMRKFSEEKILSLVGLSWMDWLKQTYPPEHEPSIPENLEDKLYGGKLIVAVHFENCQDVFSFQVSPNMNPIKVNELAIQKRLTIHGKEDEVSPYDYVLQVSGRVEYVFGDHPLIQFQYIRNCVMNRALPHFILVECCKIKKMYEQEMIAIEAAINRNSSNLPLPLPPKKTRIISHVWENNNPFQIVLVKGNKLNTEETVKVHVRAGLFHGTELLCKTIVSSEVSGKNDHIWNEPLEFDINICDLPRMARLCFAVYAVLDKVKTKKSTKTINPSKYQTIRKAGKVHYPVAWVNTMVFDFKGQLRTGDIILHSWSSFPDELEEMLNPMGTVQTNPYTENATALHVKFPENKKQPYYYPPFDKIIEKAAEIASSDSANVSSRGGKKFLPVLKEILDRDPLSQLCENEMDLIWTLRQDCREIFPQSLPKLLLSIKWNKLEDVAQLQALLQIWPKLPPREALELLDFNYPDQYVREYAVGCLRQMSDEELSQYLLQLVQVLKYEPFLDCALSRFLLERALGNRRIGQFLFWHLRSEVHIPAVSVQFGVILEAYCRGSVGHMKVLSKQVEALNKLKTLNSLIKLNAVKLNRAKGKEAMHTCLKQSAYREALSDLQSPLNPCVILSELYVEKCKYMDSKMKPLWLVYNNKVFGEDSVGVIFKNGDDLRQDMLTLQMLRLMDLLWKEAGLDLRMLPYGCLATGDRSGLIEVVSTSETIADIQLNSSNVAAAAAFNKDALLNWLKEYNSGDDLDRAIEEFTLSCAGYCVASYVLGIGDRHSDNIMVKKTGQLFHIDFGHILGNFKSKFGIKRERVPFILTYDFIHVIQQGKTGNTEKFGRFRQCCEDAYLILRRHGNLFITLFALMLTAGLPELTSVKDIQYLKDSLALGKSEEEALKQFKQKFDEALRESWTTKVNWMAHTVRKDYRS
Chain of PIK3CG (human) (P48736 whole entry, looked up): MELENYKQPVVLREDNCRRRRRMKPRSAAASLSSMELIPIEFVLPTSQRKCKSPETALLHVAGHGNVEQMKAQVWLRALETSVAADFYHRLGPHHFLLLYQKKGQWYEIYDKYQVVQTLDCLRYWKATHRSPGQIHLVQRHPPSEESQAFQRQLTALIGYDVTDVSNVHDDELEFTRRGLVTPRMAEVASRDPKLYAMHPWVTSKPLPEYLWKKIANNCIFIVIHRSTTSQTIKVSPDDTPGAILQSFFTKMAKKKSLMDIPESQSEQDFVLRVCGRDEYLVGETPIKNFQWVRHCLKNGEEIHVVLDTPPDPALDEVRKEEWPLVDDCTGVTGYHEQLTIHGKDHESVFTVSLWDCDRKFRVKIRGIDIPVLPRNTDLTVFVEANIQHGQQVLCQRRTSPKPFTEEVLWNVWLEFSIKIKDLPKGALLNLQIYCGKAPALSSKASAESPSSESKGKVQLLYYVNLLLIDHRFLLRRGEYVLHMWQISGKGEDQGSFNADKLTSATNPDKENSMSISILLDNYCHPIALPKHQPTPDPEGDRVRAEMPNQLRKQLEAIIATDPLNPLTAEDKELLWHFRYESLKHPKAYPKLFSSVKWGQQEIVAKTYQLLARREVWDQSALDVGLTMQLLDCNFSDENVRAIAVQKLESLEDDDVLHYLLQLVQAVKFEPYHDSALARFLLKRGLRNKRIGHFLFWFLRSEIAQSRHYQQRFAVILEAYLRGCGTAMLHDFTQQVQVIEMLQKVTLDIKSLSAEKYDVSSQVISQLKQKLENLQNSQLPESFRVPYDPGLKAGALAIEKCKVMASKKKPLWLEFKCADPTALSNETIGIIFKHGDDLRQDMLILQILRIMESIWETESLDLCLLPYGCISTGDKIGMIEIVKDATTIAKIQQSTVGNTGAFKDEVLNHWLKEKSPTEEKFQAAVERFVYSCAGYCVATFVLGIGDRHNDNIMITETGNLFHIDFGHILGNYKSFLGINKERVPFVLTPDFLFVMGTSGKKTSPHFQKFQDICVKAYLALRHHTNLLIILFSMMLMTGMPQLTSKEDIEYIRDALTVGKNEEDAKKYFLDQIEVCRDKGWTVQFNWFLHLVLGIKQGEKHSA
Chain of MAPK14 (human) (Q16539 whole entry, looked up): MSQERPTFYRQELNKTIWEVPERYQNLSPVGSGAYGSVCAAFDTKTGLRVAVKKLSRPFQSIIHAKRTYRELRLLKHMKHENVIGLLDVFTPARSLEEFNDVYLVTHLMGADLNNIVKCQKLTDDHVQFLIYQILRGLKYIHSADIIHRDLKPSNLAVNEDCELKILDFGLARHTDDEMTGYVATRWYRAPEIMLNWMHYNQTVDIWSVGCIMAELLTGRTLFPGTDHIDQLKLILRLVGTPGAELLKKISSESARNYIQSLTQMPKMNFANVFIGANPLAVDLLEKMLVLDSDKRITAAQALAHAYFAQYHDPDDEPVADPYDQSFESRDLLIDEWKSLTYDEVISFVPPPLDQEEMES

IC50 (PIK3CB (Human)) [nM]	inhibition (CDK2 (human)) [%]	inhibition (MAPK14 (human)) [%]	IC50 (PIK3CA (human)) [nM]	IC50 (PIK3CD (Human)) [nM]	IC50 (PIK3CG (human)) [nM]	IC50 (EGFR (human)) [nM]	IC50 (CDK2 (human)) [nM]	SMILES
120	-3.1	-0.9	–	–	–	–	–	Cc1cc(C(C)Nc2ccccc2)c2oc(-c3ccncc3)cc(=O)c2c1 (stereo unspecified)
–	0.3	-2.8	–	–	–	–	–	O=C(c1ccccc1)c1ccc(N2CCOCC2)cc1O
1000 to 50000	–	–	1000 to 50000	< 1000	1000 to 50000	1000 to 50000	–	CC(C)n1nc(-c2ccc(I)cc2)c2c(N)ncnc21
1100	-4.9	-2.6	–	–	–	–	–	O=C1NC(=S)S/C1=C/c1ccc2c(c1)N(Cc1ccc(F)c(Cl)c1)C(=O)CO2
590	1.9	-2.9	–	–	–	–	–	CC(=O)Nc1nc(C)c(-c2ccc(Cl)c(S(=O)(=O)NCCO)c2)s1
–	–	-0.3	–	–	76	–	1200	Cc1ccc([N+](=O)[O-])cc1S(=O)(=O)N(C)N=Cc1cnc2ccc(Br)cn12
–	1.5	0.2	–	–	–	–	–	Oc1cccc(-c2nc(N3CCOCC3)c3oc4ncccc4c3n2)c1
–	-5.6	-8.5	–	–	–	–	–	COc1ccccc1-n1c(CSc2ncnc3[nH]cnc23)nc2cccc(Cl)c2c1=O
–	-5.3	-1.2	–	–	100000	–	–	Cc1ccccc1Oc1cccc2c(=O)cc(N3CCOCC3)[nH]c12
1000 to 50000	–	–	< 1000	< 1000	< 1000	1000 to 50000	–	CC(C)n1nc(-c2ccc3onc(N)c3c2)c2c(N)ncnc21
–	-0.9	1.5	–	–	–	> 50000	–	COc1ccc2c(c1OC)N=C(NC(=O)c1cccnc1)N1CCN=C21
1200	2.6	-1.4	3300	720	9900	–	–	O=c1cc(-c2cccc3c2Sc2ccccc2S3)oc(N2CCOCC2)c1
1000 to 50000	–	–	1000 to 50000	1000 to 50000	1000 to 50000	> 50000	–	CC(C)n1cc(-c2cc3cc(C=O)ccc3s2)c2c(N)ncnc21
1000 to 50000	–	–	1000 to 50000	< 1000	< 1000	< 1000	–	CC(C)n1nc(-c2cccc(C(=O)NC3C=NCS3)c2)c2c(N)ncnc21 (stereo unspecified)

SMILES	IC50 (PIK3CB (Human)) [nM]	inhibition (CDK2 (human)) [%]	inhibition (MAPK14 (human)) [%]	IC50 (PIK3CA (human)) [nM]	IC50 (PIK3CD (Human)) [nM]	IC50 (PIK3CG (human)) [nM]	IC50 (EGFR (human)) [nM]	IC50 (CDK2 (human)) [nM]
Cc1ccccc1-n1c(Cn2ncc3c(N)ncnc32)nc2cccc(C)c2c1=O	25000	–	–	100000	240	10000	–	–
Cc1ccccc1-n1c(Cn2cnc3c(N)ncnc32)nc2cccc(C)c2c1=O	–	-2.4	-4.1	–	–	–	–	–
